The subject of the assay is skin microcirculation in domestic rabbits. Description: Effect of topical application of hesperetin on skin microcirculation by Laser Doppler Flowmetery. It is filed as in vivo, Oryctolagus cuniculus. The following applies: smearing the backs of rabbits with samples of different concentrations. From the text:
The experimental method for promoting microcirculation: Male Oryctolagus cuniculus weighted 3.0-3.5 kg were used. After shaving the hair on the back of the Oryctolagus cuniculus, 10 points for testing blood flow were marked with a marker pen on the hairless skin of the rabbit, i.e. 5 points for each of the right side and the left side, and aorta was avoided when drawing the points. Before smearing the sample, the basic values of blood flow at the 10 points of rabbits of each experimental group were determined by Laser Doppler Flowmetery. […] 2% solution was orally administrated by a similar method in a volume 100 times compared to the volume used in the group wherein the 2% solution was administered by smearing. After administration, the blood flow value was determined every hour at the same point by Laser Doppler Flowmetery for 24 h, and the variation index of blood flow was calculated to evaluate the effect of hesperetin on the back blood of rabbits, wherein a higher variation index of blood flow indicates a better effect of promoting microcirculation. The experimental results were statistically analyzed by SPSS11.5 software, t-test was applied to the measured data to evaluate the experimental results. When P<0.1, the data may be regarded as statistically significant. In the results of Table 1, all the time points at with P<0.1 in the 24-h test were listed.

Here are results for one molecule from US9351952B2, “Use of hesperetin” (NATURAL MEDICINE INSTITUTE OF ZHEJIANG YANGSHENGTANG CO., …, priority 2010, dated 2016).

SMILES strings stand for the structures.

On to `COc1ccc([C@@H]2CC(=O)c3c(O)cc(O)cc3O2)cc1O` [Hesperetin], for which the “blood flow in skin microvessels as compared to the blank side” value is given as “significantly enhanced”.
